Measured values reported in ChEMBL document CHEMBL1129390, “Synthesis and solution conformation of cyclo[RGDRGD]: a cyclic peptide with selectivity for the alpha V beta 3 receptor” (J Med Chem, 1996).
Square brackets hold non-standard residues; d marks the D form. Peptide text beside a SMILES is read from it. NMeR = CN[C@@H](CCCNC(=N)N)C(=O)O; 3Amb = NCc1cccc(C(=O)O)c1; dAbu = CC[C@@H](N)C(=O)O

Target: Integrin alpha-V/beta-3 (Homo sapiens, UniProt P05106+P06756)
Experiment: Inhibition of alphaV-beta3 interaction with vitronectin
Assay type: protein-complex assay

Integrin alpha-V/beta-3, sequence (P05106 27-788 limits assumed): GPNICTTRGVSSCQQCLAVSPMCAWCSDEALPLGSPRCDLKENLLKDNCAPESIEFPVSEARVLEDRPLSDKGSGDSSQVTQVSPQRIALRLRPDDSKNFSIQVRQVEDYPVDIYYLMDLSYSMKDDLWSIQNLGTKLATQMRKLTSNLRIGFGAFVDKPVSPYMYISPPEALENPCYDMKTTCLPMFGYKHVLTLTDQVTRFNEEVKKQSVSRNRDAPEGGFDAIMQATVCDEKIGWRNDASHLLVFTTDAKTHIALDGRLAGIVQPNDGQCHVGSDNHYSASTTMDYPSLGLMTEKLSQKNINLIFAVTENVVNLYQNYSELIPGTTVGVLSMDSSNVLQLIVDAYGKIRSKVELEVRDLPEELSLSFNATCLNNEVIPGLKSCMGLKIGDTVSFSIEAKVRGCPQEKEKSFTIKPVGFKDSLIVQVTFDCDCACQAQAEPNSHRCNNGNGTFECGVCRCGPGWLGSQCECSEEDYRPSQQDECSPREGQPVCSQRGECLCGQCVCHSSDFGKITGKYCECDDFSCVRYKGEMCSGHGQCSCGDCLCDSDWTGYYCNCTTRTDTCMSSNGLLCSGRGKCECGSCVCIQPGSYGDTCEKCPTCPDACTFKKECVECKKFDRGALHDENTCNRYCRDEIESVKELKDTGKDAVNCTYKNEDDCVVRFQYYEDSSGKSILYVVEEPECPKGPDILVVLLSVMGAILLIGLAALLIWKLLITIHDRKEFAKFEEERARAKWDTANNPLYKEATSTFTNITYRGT
Integrin alpha-V/beta-3, sequence (P06756 31-889 limits assumed): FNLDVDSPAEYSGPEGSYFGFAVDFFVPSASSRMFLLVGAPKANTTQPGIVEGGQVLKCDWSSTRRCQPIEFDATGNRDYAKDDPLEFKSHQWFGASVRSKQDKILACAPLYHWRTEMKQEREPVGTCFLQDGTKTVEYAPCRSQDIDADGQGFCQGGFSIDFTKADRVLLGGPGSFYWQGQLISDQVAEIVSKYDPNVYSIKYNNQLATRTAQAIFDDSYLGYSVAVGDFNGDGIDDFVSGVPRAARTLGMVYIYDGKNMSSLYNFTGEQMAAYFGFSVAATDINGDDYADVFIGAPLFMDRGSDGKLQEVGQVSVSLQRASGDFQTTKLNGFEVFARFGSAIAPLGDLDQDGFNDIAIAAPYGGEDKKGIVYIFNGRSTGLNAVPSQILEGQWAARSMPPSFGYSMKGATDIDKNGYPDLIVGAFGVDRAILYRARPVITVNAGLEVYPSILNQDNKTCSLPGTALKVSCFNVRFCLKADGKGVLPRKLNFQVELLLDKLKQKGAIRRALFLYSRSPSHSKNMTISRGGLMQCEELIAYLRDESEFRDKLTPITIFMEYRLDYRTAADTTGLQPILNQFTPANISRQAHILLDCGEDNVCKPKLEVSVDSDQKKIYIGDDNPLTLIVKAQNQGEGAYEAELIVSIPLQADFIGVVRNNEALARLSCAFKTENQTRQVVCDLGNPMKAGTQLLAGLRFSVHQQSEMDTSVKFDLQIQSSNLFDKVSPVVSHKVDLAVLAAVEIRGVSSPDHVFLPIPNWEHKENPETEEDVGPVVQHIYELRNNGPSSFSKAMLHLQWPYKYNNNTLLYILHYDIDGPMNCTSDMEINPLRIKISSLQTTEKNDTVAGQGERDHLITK
Integrin alpha-V/beta-3, sequence (P06756 891-1048 limits assumed): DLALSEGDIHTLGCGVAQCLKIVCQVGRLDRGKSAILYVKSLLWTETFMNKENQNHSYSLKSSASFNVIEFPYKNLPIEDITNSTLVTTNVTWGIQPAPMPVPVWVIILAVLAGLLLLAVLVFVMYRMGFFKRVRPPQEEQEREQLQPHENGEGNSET

IC50 [nM]	SMILES
140	N=C(N)NCCC[C@@H]1NC(=O)[C@H](CC(=O)O)NC(=O)CNC(=O)[C@H](CCCNC(=N)N)NC(=O)[C@H](CC(=O)O)NC(=O)CNC1=O
320	N=C(N)NCCC[C@@H]1NC(=O)[C@H](CC(=O)O)NC(=O)CNC(=O)[C@H](CCCNC(=N)N)NC(=O)[C@@H](CC(=O)O)NC(=O)CNC1=O
70	NC(N)=NCCC[C@H](NC(=O)[C@H](CC(=O)O)NC(=O)CNC(=O)[C@@H](N)CCCN=C(N)N)C(=O)NCC(=O)N[C@@H](CC(=O)O)C(=O)O (H-RGDRGD-OH)
> 10000	CC[C@H]1NC(=O)c2cccc(c2)CNC(=O)[C@H](CC(=O)O)NC(=O)CNC(=O)[C@H](CCCN=C(N)N)N(C)C1=O (cyclo([NMeR]GD[3Amb][dAbu]))
